# From PubChem BioAssay (NCI)
#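 In this assay, cells in 96-well plates receive the compound at five concentrations for 48 hours. Endpoints are linearly interpolated between the surrounding concentrations. GI50: concentration for 50% inhibition of growth. At the TGI there is no net growth.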
# Experiments:
# Experiment in all cases: NCI-60 cell line screen, 48 h
# [1] = tested on: CAKI-1 renal
# [2] = tested on: KM12 colon
# [3] = tested on: LOX IMVI melanoma
# [4] = tested on: MOLT-4 leukemia
# [5] = tested on: NCI-H460 lung
# [6] = tested on: NCI-H522 lung
# [7] = tested on: SK-MEL-2 melanoma
# [8] = tested on: DU-145 prostate
# [9] = tested on: SK-OV-3 ovarian
# [10] = tested on: BT-549 breast
Compound,TGI [1] [µM],TGI [2] [µM],TGI [3] [µM],TGI [4] [µM],TGI [5] [µM],TGI [6] [µM],TGI [7] [µM],GI50 [1] [µM],GI50 [8] [µM],TGI [8] [µM],GI50 [2] [µM],GI50 [3] [µM],GI50 [4] [µM],GI50 [5] [µM],GI50 [6] [µM],GI50 [7] [µM],GI50 [9] [µM],TGI [9] [µM],GI50 [10] [µM],TGI [10] [µM]
CNC(=O)OCc1cc2ccncc2c2c1[nH]c1ccccc12,> 100,> 100,> 100,> 85.3,> 100,> 100,> 100,,,,,,,,,,,,,
Cc1cccc2c1ccc1c3occ(C)c3c(=O)oc21,> 100,> 100,> 100,> 100,> 100,> 100,> 100,> 100,> 100,> 100,> 100,80.3,51.5,93.1,> 100,> 100,> 100,> 100,,
CC1OC(n2cc(I)c(=O)[nH]c2=O)C=CC1=O (stereo unspecified),29.5,25.8,19.6,33.8,35.1,,32.4,,,,,,,,,,,73.2,,
O=C(O)CP(=O)(c1ccccc1)c1ccccc1.O=C(O)CP(=O)(c1ccccc1)c1ccccc1.[Cd],38.9,22.7,,52.4,> 100,2.77,75.3,22.7,19.4,41.3,7.97,,33.4,3.9,0.403,19.6,20.2,44.5,,
COc1cc2c3c(c1OCc1ccccc1)NCCC3NCC2 (stereo unspecified),> 100,> 100,> 100,> 100,> 100,> 100,,,,,,,,,,,,,,
Cc1[nH]c2ccccc2c1C1=CC(=O)C=CC1=O,22.6,25.5,22.3,,42.2,3.28,28.9,5.66,13.4,26.8,12.2,9.77,,15.5,1.66,12.3,14.5,33.5,11.1,24.4
O=C1CCCC(=O)C1C(=O)c1ccc(C(F)(F)F)cc1[N+](=O)[O-],> 100,> 100,,> 100,> 100,> 100,,> 100,> 100,> 100,> 100,,> 100,> 100,> 100,,> 100,> 100,> 100,> 100
NC(=O)OCC(COc1ccc(Cl)cc1)OC(=O)c1cc([N+](=O)[O-])cc([N+](=O)[O-])c1 (stereo unspecified),> 100,> 100,34.4,> 100,> 100,> 100,> 100,,,,,,,,,,,> 100,,
[O]=[W](=[O])([OH])[OH],> 100,> 100,,> 100,> 100,> 100,> 100,> 100,> 100,> 100,> 100,,> 100,> 100,> 100,> 100,,,> 100,> 100
O=[N+]([O-])c1cc([N+](=O)[O-])c(C(Cl)C(Cl)c2ccccc2)cc1C(Cl)C(Cl)c1ccccc1 (stereo unspecified),3.25,3.76,3.57,> 23.3,,3.39,3.86,,,,,,,,,,,80.1,,
Cc1cc2c(=O)c3ccccc3oc2c(C#N)c1C,> 100,> 100,,> 100,> 100,,,,,> 100,,,,,,,,> 100,,
CCOC(=O)NN(C(=O)OCC)C(C(=O)c1ccc(Cl)cc1)=C1NCCN1,> 100,> 100,> 100,> 100,> 100,> 100,> 100,,,,,,,,,,,> 100,,
O=C(NCCCCCCNC(=O)NC1OCC(O)C(O)C1O)NC1OCC(O)C(O)C1O (stereo unspecified),> 100,> 100,> 100,> 100,> 100,> 100,> 100,,,,,,,,,,,> 100,,
CO[C@]12CCC(=O)N1C=Cc1c2[nH]c2ccccc12,> 100,,> 100,> 100,> 100,,,,,,,,,,,,,,,
CC(C)N(C(=O)C12C3C4C5C3C1(C#N)C5C42)C(C)C (stereo unspecified),> 100,> 100,> 100,> 100,> 100,> 100,> 100,,,,,,,,,,,> 100,,
O=C(c1ccncc1)N1CCN(C2=NS(=O)(=O)c3ccccc3N2c2ccccc2)CC1,88.5,> 100,> 100,,> 100,67,65.7,30.3,7.77,> 100,29.2,11.5,,2.59,5.98,28,13.4,> 100,17.1,52.1
COc1cc([N+](=O)[O-])c(OC)cc1-c1nc2n(c1/C(N)=N/C(=N)N)CCS2,,> 100,> 100,> 100,> 100,> 100,,,50.4,> 100,> 100,89.1,> 100,70.1,47.7,,> 100,> 100,> 100,> 100
N#CC(C(=O)C(=O)Nc1ccc(Cl)c(Cl)c1)c1ccc(Cl)cc1 (stereo unspecified),> 100,> 100,31.1,> 100,96.7,65.5,> 100,,,,,,,,,,,> 100,,
O=C(Nc1ccc(Cl)cc1F)c1cc(Cl)ccc1O,2.52,4.28,,3.99,,,1.72,0.298,0.915,> 42.8,1.51,,1.14,0.44,0.337,0.338,0.576,8.6,0.379,2.04
